# From US8067424B2, “Selective inhibitors for cyclin-dependent kinases” (Emory University, priority 2007, dated 2011)
# Where two headings read alike, the source gives them in different places.
# Experiments:
# KM12 = experiment: cells; conditions: Homo sapiens
# NCI-H23 = experiment: cells; conditions: Homo sapiens
# EKVX = conditions: for Mean Optical Densities / Percent Growth: EKVX
# SK-MEL-28 = experiment: cells; conditions: Homo sapiens
# NCI-H226 = experiment: cells; conditions: Homo sapiens
# SNB-75 [1] = experiment: cells; conditions: Homo sapiens
# RXF 393 [2] = experiment: cells; conditions: Homo sapiens
# SNB-75 [3] = tested on: SNB-75
# RXF 393 [4] = tested on: RXF 393
# [5] = OVCAR-5, log10 concentration −4.0
# [6] = OVCAR-5, log10 concentration −5.0
# [7] = OVCAR-5, log10 concentration −6.0
# [8] = OVCAR-5, log10 concentration −7.0
# [9] = OVCAR-5, log10 concentration −8.0
# [10] = RPMI-8226, log10 concentration −4.0
# [11] = RPMI-8226, log10 concentration −5.0
# [12] = RPMI-8226, log10 concentration −6.0
# [13] = RPMI-8226, log10 concentration −7.0
# [14] = RPMI-8226, log10 concentration −8.0
# [15] = NCI-H460, log10 concentration −4.0
# [16] = NCI-H460, log10 concentration −5.0
# [17] = NCI-H460, log10 concentration −6.0
# [18] = NCI-H460, log10 concentration −7.0
# [19] = NCI-H460, log10 concentration −8.0
# [20] = SF-539, log10 concentration −4.0
# [21] = SF-539, log10 concentration −5.0
# [22] = SF-539, log10 concentration −6.0
# [23] = SF-539, log10 concentration −7.0
# [24] = SF-539, log10 concentration −8.0
# [25] = SK-MEL-5, log10 concentration −4.0
# [26] = SK-MEL-5, log10 concentration −5.0
# [27] = SK-MEL-5, log10 concentration −6.0
# [28] = SK-MEL-5, log10 concentration −7.0
# [29] = SK-MEL-5, log10 concentration −8.0
# [30] = SNB-75, log10 concentration −4.0
# [31] = SNB-75, log10 concentration −5.0
# [32] = SNB-75, log10 concentration −6.0
# [33] = SNB-75, log10 concentration −7.0
# [34] = SNB-75, log10 concentration −8.0
# [35] = RXF 393, log10 concentration −4.0
# [36] = RXF 393, log10 concentration −5.0
# [37] = RXF 393, log10 concentration −6.0
# [38] = RXF 393, log10 concentration −7.0
# [39] = RXF 393, log10 concentration −8.0
# [40] = DU-145, log10 concentration −4.0
# [41] = DU-145, log10 concentration −5.0
# [42] = DU-145, log10 concentration −6.0
# [43] = DU-145, log10 concentration −7.0
# [44] = DU-145, log10 concentration −8.0
smiles,measurement,setting,value
"CC(C)c1cnn2c(NCc3ccccc3)cc(N[C@@H](CO)[C@H](O)CO)nc12 [ICEC0318, (3S)-3-(7-(Benzylamino)-3-isopropylpyrazolo[1,5-a]pyrimidin-5-ylamino)butane-1,2,4-triol]",TGI,OVCAR-5; OVCAR-5 (Ovarian Cancer),>1.00E−4
same,Mean Optical Densities,OVCAR-5; [5],0.618
same,Percent Growth,OVCAR-5; [5],10%
same,Mean Optical Densities,OVCAR-5; [6],0.688
same,Percent Growth,OVCAR-5; [6],19%
same,Mean Optical Densities,OVCAR-5; [7],0.665
same,Percent Growth,OVCAR-5; [7],16%
same,Mean Optical Densities,OVCAR-5; [8],1.165
same,Percent Growth,OVCAR-5; [8],82%
same,Mean Optical Densities,OVCAR-5; [9],1.211
same,Percent Growth,OVCAR-5; [9],88%
same,TGI,PC-3; PC-3 (Prostate Cancer),>1.00E−4
same,Mean Optical Densities,"PC-3; PC-3, log10 concentration −4.0",0.173
same,Percent Growth,"PC-3; PC-3, log10 concentration −4.0",2%
same,Mean Optical Densities,"PC-3; PC-3, log10 concentration −5.0",0.200
same,Percent Growth,"PC-3; PC-3, log10 concentration −5.0",9%
same,Mean Optical Densities,"PC-3; PC-3, log10 concentration −6.0",0.218
same,Percent Growth,"PC-3; PC-3, log10 concentration −6.0",14%
same,Mean Optical Densities,"PC-3; PC-3, log10 concentration −7.0",0.486
same,Percent Growth,"PC-3; PC-3, log10 concentration −7.0",85%
same,Mean Optical Densities,"PC-3; PC-3, log10 concentration −8.0",0.532
same,Percent Growth,"PC-3; PC-3, log10 concentration −8.0",97%
same,GI50,KM12; KM12,275 nM
same,CC50,"KM12; KM12, read-out: LC50",> 100000 nM
same,TGI,RPMI-8226; RPMI-8226 (Leukemia),>1.00E−4
same,Mean Optical Densities,RPMI-8226; [10],0.249
same,Percent Growth,RPMI-8226; [10],7%
same,Mean Optical Densities,RPMI-8226; [11],0.302
same,Percent Growth,RPMI-8226; [11],18%
same,Mean Optical Densities,RPMI-8226; [12],0.311
same,Percent Growth,RPMI-8226; [12],19%
same,Mean Optical Densities,RPMI-8226; [13],0.556
same,Percent Growth,RPMI-8226; [13],67%
same,Mean Optical Densities,RPMI-8226; [14],0.595
same,Percent Growth,RPMI-8226; [14],75%
same,GI50,NCI-H23; NCI-H23,260 nM
same,CC50,"NCI-H23; NCI-H23, read-out: LC50",> 100000 nM
same,TGI,NCI-H460; NCI-H460 (Non-Small Cell Lung Cancer),1.71E−5
same,Mean Optical Densities,NCI-H460; [15],0.094
same,Percent Growth,NCI-H460; [15],−15%
same,Mean Optical Densities,NCI-H460; [16],0.158
same,Percent Growth,NCI-H460; [16],5%
same,Mean Optical Densities,NCI-H460; [17],0.181
same,Percent Growth,NCI-H460; [17],7%
same,Mean Optical Densities,NCI-H460; [18],0.919
same,Percent Growth,NCI-H460; [18],80%
same,Mean Optical Densities,NCI-H460; [19],1.138
same,Percent Growth,NCI-H460; [19],102%
same,TGI,EKVX; EKVX (Non-Small Cell Lung Cancer),>1.00E−4
same,Mean Optical Densities,EKVX; log10 concentration −4.0,0.740
same,Percent Growth,EKVX; log10 concentration −4.0,4%
same,Mean Optical Densities,EKVX; log10 concentration −5.0,0.817
same,Percent Growth,EKVX; log10 concentration −5.0,9%
same,Mean Optical Densities,EKVX; log10 concentration −6.0,0.841
same,Percent Growth,EKVX; log10 concentration −6.0,11%
same,Mean Optical Densities,EKVX; log10 concentration −7.0,1.830
same,Percent Growth,EKVX; log10 concentration −7.0,83%
same,Mean Optical Densities,EKVX; log10 concentration −8.0,2.035
same,Percent Growth,EKVX; log10 concentration −8.0,98%
same,TGI,SF-539; SF-539 (CNS Cancer),5.81E−7
same,Mean Optical Densities,SF-539; [20],0.138
same,Percent Growth,SF-539; [20],−81%
same,Mean Optical Densities,SF-539; [21],0.327
same,Percent Growth,SF-539; [21],−55%
same,Mean Optical Densities,SF-539; [22],0.540
same,Percent Growth,SF-539; [22],−25%
same,Mean Optical Densities,SF-539; [23],1.950
same,Percent Growth,SF-539; [23],82%
same,Mean Optical Densities,SF-539; [24],2.183
same,Percent Growth,SF-539; [24],98%
same,TGI,SK-MEL-5; SK-MEL-5 (Melanoma),5.33E−7
same,Mean Optical Densities,SK-MEL-5; [25],0.260
same,Percent Growth,SK-MEL-5; [25],−58%
same,Mean Optical Densities,SK-MEL-5; [26],0.275
same,Percent Growth,SK-MEL-5; [26],−56%
same,Mean Optical Densities,SK-MEL-5; [27],0.427
same,Percent Growth,SK-MEL-5; [27],−31%
same,Mean Optical Densities,SK-MEL-5; [28],2.036
same,Percent Growth,SK-MEL-5; [28],82%
same,Mean Optical Densities,SK-MEL-5; [29],2.375
same,Percent Growth,SK-MEL-5; [29],102%
same,GI50,SK-MEL-28; SK-MEL-28,245 nM
same,CC50,"SK-MEL-28; SK-MEL-28, read-out: LC50",37100 nM
same,GI50,NCI-H226; NCI-H226,272 nM
same,CC50,"NCI-H226; NCI-H226, read-out: LC50",> 100000 nM
same,GI50,SNB-75 [1]; SNB-75,222 nM
same,CC50,"SNB-75 [1]; SNB-75, read-out: LC50",1600 nM
same,TGI,M14; M14 (Melanoma),1.00E−6
same,Mean Optical Densities,"M14; M14, log10 concentration −4.0",0.125
same,Percent Growth,"M14; M14, log10 concentration −4.0",−62%
same,Mean Optical Densities,"M14; M14, log10 concentration −5.0",0.246
same,Percent Growth,"M14; M14, log10 concentration −5.0",−26%
same,Mean Optical Densities,"M14; M14, log10 concentration −6.0",0.333
same,Mean Optical Densities,"M14; M14, log10 concentration −7.0",1.032
same,Percent Growth,"M14; M14, log10 concentration −7.0",97%
same,Mean Optical Densities,"M14; M14, log10 concentration −8.0",1.074
same,Percent Growth,"M14; M14, log10 concentration −8.0",103%
same,GI50,RXF 393 [2]; RXF 393,213 nM
same,CC50,"RXF 393 [2]; RXF 393, read-out: LC50",54600 nM
same,TGI,SNB-75 [3]; SNB-75 (CNS Cancer),4.82E−7
same,Mean Optical Densities,SNB-75 [3]; [30],0.072
same,Percent Growth,SNB-75 [3]; [30],−83%
same,Mean Optical Densities,SNB-75 [3]; [31],0.162
same,Percent Growth,SNB-75 [3]; [31],−62%
same,Mean Optical Densities,SNB-75 [3]; [32],0.226
same,Percent Growth,SNB-75 [3]; [32],−47%
same,Mean Optical Densities,SNB-75 [3]; [33],0.911
same,Percent Growth,SNB-75 [3]; [33],101%
same,Mean Optical Densities,SNB-75 [3]; [34],0.848
same,Percent Growth,SNB-75 [3]; [34],88%
same,TGI,RXF 393 [4]; RXF 393 (Renal Cancer),5.27E−7
same,Mean Optical Densities,RXF 393 [4]; [35],0.239
same,Percent Growth,RXF 393 [4]; [35],−54%
same,Mean Optical Densities,RXF 393 [4]; [36],0.308
same,Percent Growth,RXF 393 [4]; [36],−40%
same,Mean Optical Densities,RXF 393 [4]; [37],0.333
same,Percent Growth,RXF 393 [4]; [37],−35%
same,Mean Optical Densities,RXF 393 [4]; [38],0.928
same,Percent Growth,RXF 393 [4]; [38],92%
same,Mean Optical Densities,RXF 393 [4]; [39],0.980
same,Percent Growth,RXF 393 [4]; [39],103%
same,TGI,DU-145; DU-145 (Prostate Cancer),>1.00E−4
same,Mean Optical Densities,DU-145; [40],0.204
same,Percent Growth,DU-145; [40],3%
same,Mean Optical Densities,DU-145; [41],0.250
same,Percent Growth,DU-145; [41],12%
same,Mean Optical Densities,DU-145; [42],0.277
same,Percent Growth,DU-145; [42],17%
same,Mean Optical Densities,DU-145; [43],0.688
same,Percent Growth,DU-145; [43],95%
same,Mean Optical Densities,DU-145; [44],0.732
same,Percent Growth,DU-145; [44],103%
